Data reported in ChEMBL document CHEMBL1137686, “Synthesis and anticonvulsant activity of new N-[(4-arylpiperazin-1-yl)-alkyl] derivatives of 3-phenyl-pyrrolidine-2,5-dione” (Eur J Med Chem, 2009).
Calls of active or inactive are those of the source. The calls are words filed in the database; no cut-off is given here.

What was measured:
[1] = tested on: Mus musculus; assay: Anticonvulsant activity in ip dosed CF1 albino mouse assessed as inhibition of maximal electroshock-induced seizures after 0.5 hrs; type: functional
[2] = tested on: Mus musculus; assay: Anticonvulsant activity in ip dosed CF1 albino mouse assessed as inhibition of maximal electroshock-induced seizures after 4 hrs; type: functional
[3] = tested on: Mus musculus; assay: Neurotoxicity in ip dosed CF1 albino mouse assessed as ability to maintain equilibrium for 1 min on […] after 0.5 hrs by rotarod test; type: toxicity, organism-based; settings: in vivo
[4] = tested on: Mus musculus; assay: Neurotoxicity in CF1 albino mouse assessed as ability to maintain equilibrium for 1 min on […] at 300 mg/kg, ip after 4 hrs by rotarod test; type: toxicity, organism-based; parameters: dose 300 mg/kg, route intraperitoneal; settings: in vivo
[5] = tested on: Mus musculus; assay: Anticonvulsant activity in CF1 albino mouse assessed as inhibition of maximal electroshock-induced seizures at 300 mg/kg, ip after 0.5 hrs; type: functional, organism-based; parameters: dose 300 mg/kg
[6] = tested on: Mus musculus; assay: Anticonvulsant activity in CF1 albino mouse assessed as inhibition of maximal electroshock-induced seizures at 300 mg/kg, ip after 4 hrs; type: functional, organism-based; parameters: dose 300 mg/kg
[7] = tested on: Mus musculus; assay: Neurotoxicity in CF1 albino mouse assessed as ability to maintain equilibrium for 1 min on […] at 300 mg/kg, ip after 0.5 hrs by rotarod test; type: toxicity, organism-based; parameters: dose 300 mg/kg, route intraperitoneal; settings: in vivo
[8] = tested on: Mus musculus; assay: Anticonvulsant activity in CF1 albino mouse assessed as protection against maximal electroshock-induced seizures at 30 mg/kg, po after 1 hr; type: functional
[9] = tested on: Mus musculus; assay: Anticonvulsant activity in CF1 albino mouse assessed as protection against maximal electroshock-induced seizures at 30 mg/kg, po after 2 hrs; type: functional
[10] = tested on: Mus musculus; assay: Anticonvulsant activity in CF1 albino mouse assessed as protection against maximal electroshock-induced seizures at 30 mg/kg, po after 4 hrs; type: functional
[11] = tested on: Mus musculus; assay: Neurotoxicity in CF1 albino mouse assessed as motor impairment at 30 mg/kg, po after 0.25 hrs by rotarod test; type: toxicity, organism-based; parameters: dose 30 mg/kg, route oral; settings: in vivo
[12] = tested on: Mus musculus; assay: Neurotoxicity in CF1 albino mouse assessed as motor impairment at 30 mg/kg, po after 0.5 hrs by rotarod test; type: toxicity, organism-based; parameters: dose 30 mg/kg, route oral; settings: in vivo
[13] = tested on: Mus musculus; assay: Neurotoxicity in CF1 albino mouse assessed as motor impairment at 30 mg/kg, po after 1 hr by rotarod test; type: toxicity, organism-based; parameters: dose 30 mg/kg, route oral; settings: in vivo
[14] = tested on: Mus musculus; assay: Neurotoxicity in CF1 albino mouse assessed as motor impairment at 30 mg/kg, po after 2 hrs by rotarod test; type: toxicity, organism-based; parameters: dose 30 mg/kg, route oral; settings: in vivo
[15] = tested on: Mus musculus; assay: Neurotoxicity in CF1 albino mouse assessed as motor impairment at 30 mg/kg, po after 4 hrs by rotarod test; type: toxicity, organism-based; parameters: dose 30 mg/kg, route oral; settings: in vivo
[16] = tested on: Mus musculus; assay: Neurotoxicity in ip dosed CF1 albino mouse assessed as ability to maintain equilibrium for 1 min on […] after 4 hrs by rotarod test; type: toxicity, organism-based; settings: in vivo
[17] = tested on: Mus musculus; assay: Anticonvulsant activity in CF1 albino mouse assessed as protection against maximal electroshock-induced seizures at 30 mg/kg, po after 0.25 hrs; type: functional
[18] = tested on: Mus musculus; assay: Anticonvulsant activity in CF1 albino mouse assessed as protection against maximal electroshock-induced seizures at 30 mg/kg, po after 0.5 hrs; type: functional

O=C1CC(c2ccccc2C(F)(F)F)C(=O)N1CN1CCN(c2cccc(C(F)(F)F)c2)CC1 (stereo not given)
Activity [1]: 100 mg/kg
Activity [2]: 100 mg/kg
Activity [3]: 300 mg/kg
Activity [4]: Non-toxic

O=C1CC(c2ccccc2C(F)(F)F)C(=O)N1CCN1CCN(c2ccccc2F)CC1 (stereo not given)
Activity [5]: inactive
Activity [6]: inactive
Activity [7]: Non-toxic
Activity [4]: Non-toxic

O=C1CC(c2ccccc2C(F)(F)F)C(=O)N1CN1CCN(c2cccc(Cl)c2)CC1 (stereo not given)
Activity [8]: 50%
Activity [9]: 100%
Activity [10]: 100%
Activity [11]: Non-toxic
Activity [12]: Non-toxic
Activity [13]: Non-toxic
Activity [14]: Non-toxic
Activity [15]: Non-toxic
Activity [2]: 100 mg/kg
Activity [5]: inactive
Activity [16]: 100 mg/kg
Activity [3]: 100 mg/kg
Activity [17]: inactive
Activity [18]: 25%

O=C1CC(c2ccccc2C(F)(F)F)C(=O)N1CN1CCN(c2ccccc2F)CC1 (stereo not given)
Activity [8]: 25%
Activity [9]: inactive
Activity [10]: 25%
Activity [11]: Non-toxic
Activity [12]: Non-toxic
Activity [13]: Non-toxic
Activity [14]: Non-toxic
Activity [15]: Non-toxic
Activity [2]: 30 mg/kg
Activity [5]: inactive
Activity [16]: 300 mg/kg
Activity [3]: 100 mg/kg
Activity [18]: 25%

O=C1CC(c2ccccc2C(F)(F)F)C(=O)N1CCCN1CCN(c2cccc(Cl)c2)CC1 (stereo not given)
Activity [1]: 100 mg/kg
Activity [2]: 100 mg/kg
Activity [16]: 300 mg/kg
Activity [3]: 100 mg/kg

O=C1CC(c2ccccc2C(F)(F)F)C(=O)N1CCN1CCN(c2cccc(C(F)(F)F)c2)CC1 (stereo not given)
Activity [5]: inactive
Activity [6]: inactive
Activity [7]: Non-toxic
Activity [4]: Non-toxic

COc1ccccc1N1CCN(CCCN2C(=O)CC(c3ccccc3C)C2=O)CC1 (stereo not given)
Activity [5]: inactive
Activity [6]: inactive
Activity [3]: 100 mg/kg
Activity [4]: Non-toxic

Cc1ccccc1C1CC(=O)N(CCN2CCN(c3ccccc3F)CC2)C1=O (stereo not given)
Activity [2]: 300 mg/kg
Activity [5]: inactive
Activity [3]: 300 mg/kg
Activity [4]: Non-toxic

Cc1ccccc1C1CC(=O)N(CCCN2CCN(c3cccc(Cl)c3)CC2)C1=O (stereo not given)
Activity [8]: inactive
Activity [9]: 25%
Activity [10]: inactive
Activity [11]: Non-toxic
Activity [12]: Non-toxic
Activity [13]: Non-toxic
Activity [14]: Non-toxic
Activity [15]: Non-toxic
Activity [1]: 300 mg/kg
Activity [2]: 100 mg/kg
Activity [3]: 300 mg/kg
Activity [4]: Non-toxic
Activity [17]: inactive
Activity [18]: inactive

Cc1ccccc1C1CC(=O)N(CN2CCN(c3ccccc3F)CC2)C1=O (stereo not given)
Activity [5]: inactive
Activity [6]: inactive
Activity [3]: 300 mg/kg
Activity [4]: Non-toxic

Cc1ccccc1C1CC(=O)N(CN2CCN(c3ccccc3)CC2)C1=O (stereo not given)
Activity [2]: 300 mg/kg
Activity [5]: inactive
Activity [16]: 300 mg/kg
Activity [3]: 100 mg/kg

Cc1ccccc1C1CC(=O)N(CN2CCN(c3cccc(Cl)c3)CC2)C1=O (stereo not given)
Activity [5]: inactive
Activity [6]: inactive
Activity [7]: Non-toxic
Activity [4]: Non-toxic

COc1ccccc1N1CCN(CCCN2C(=O)CC(c3ccccc3C(F)(F)F)C2=O)CC1 (stereo not given)
Activity [5]: inactive
Activity [6]: inactive
Activity [16]: 300 mg/kg
Activity [3]: 100 mg/kg

Cc1ccccc1C1CC(=O)N(CCN2CCN(c3ccccc3)CC2)C1=O (stereo not given)
Activity [5]: inactive
Activity [6]: inactive
Activity [3]: 300 mg/kg
Activity [4]: Non-toxic
